#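 Tested at 5 concentrations; 48 h exposure; 96-well plates; endpoints linearly interpolated, else capped at highest concentration. The concentration for 50% growth inhibition is given as GI50.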 The source made the active and inactive calls. Cut-off read from the data, not from the text of the source: active = GI50 up to about 1.1 µM and inactive = higher.
# Columns and labels:
# Assay in all cases: NCI-60 cell line screen, 48 h
# [1] = test system: SR
# [2] = test system: BT-549
# [3] = test system: 786-0
# [4] = test system: SW-620
# [5] = test system: SK-MEL-28
# [6] = test system: MDA-MB-435
# [7] = test system: OVCAR-5
# [8] = test system: CCRF-CEM
# [9] = test system: SF-539
# [10] = test system: SK-OV-3
# [11] = test system: MCF7
# [12] = test system: UACC-257
# [13] = test system: HOP-62
# [14] = test system: SF-295
# [15] = test system: DU-145
# [16] = test system: IGROV-1
# [17] = test system: OVCAR-3
# [18] = test system: RPMI-8226
# [19] = test system: U-251
# [20] = test system: SNB-19
# [21] = test system: TK-10
# [22] = test system: SK-MEL-2
# [23] = test system: HCT-15
# [24] = test system: MOLT-4
# [25] = test system: MDA-MB-231
# [26] = test system: HOP-92
# [27] = test system: HT-29
# [28] = test system: OVCAR-8
# [29] = test system: HCT-116
# [30] = test system: T47D
# [31] = test system: NCI-H460
# [32] = test system: Hs-578T
# [33] = test system: A498
# [34] = test system: EKVX
# [35] = test system: KM12
# [36] = test system: HL-60
# [37] = test system: M14
# [38] = test system: SK-MEL-5
# [39] = test system: UO-31
# [40] = test system: SN12C
# [41] = test system: SF-268
# [42] = test system: ACHN
# [43] = test system: K562
# [44] = test system: UACC-62
# [45] = test system: NCI/ADR-RES
# [46] = test system: PC-3
# [47] = test system: LOX IMVI
# [48] = test system: CAKI-1
# [49] = test system: COLO 205
# [50] = test system: SNB-75
# [51] = test system: MDA-N
# [52] = test system: OVCAR-4
# [53] = test system: HCC 2998
# [54] = test system: A549
# [55] = test system: NCI-H226
# [56] = test system: NCI-H23
# [57] = test system: RXF 393
# [58] = test system: NCI-H522
# [59] = test system: Malme-3M
compound,measurement,setting,value
Cc1ccc2nc(Cl)c(/C=N/N3C(=O)/C(=C/c4cccc([N+](=O)[O-])c4)N=C3c3ccccc3)cc2c1,GI50,[1],19.8 µM (inactive)
same,GI50,[2],> 100 µM (inactive)
same,GI50,[3],> 100 µM (inactive)
same,GI50,[4],75.5 µM (inactive)
same,GI50,[5],> 100 µM (inactive)
same,GI50,[6],20.7 µM (inactive)
same,GI50,[7],> 100 µM (inactive)
same,GI50,[8],25.9 µM (inactive)
same,GI50,[9],> 100 µM (inactive)
same,GI50,[10],94.2 µM (inactive)
same,GI50,[11],20.3 µM (inactive)
same,GI50,[12],61.1 µM (inactive)
same,GI50,[13],50.2 µM (inactive)
same,GI50,[14],40.9 µM (inactive)
same,GI50,[15],> 100 µM (inactive)
same,GI50,[16],31.2 µM (inactive)
same,GI50,[17],30.5 µM (inactive)
same,GI50,[18],31.3 µM (inactive)
same,GI50,[19],89.7 µM (inactive)
same,GI50,[20],> 100 µM (inactive)
same,GI50,[21],> 100 µM (inactive)
same,GI50,[22],22.2 µM (inactive)
same,GI50,[23],42.2 µM
same,GI50,[24],29.2 µM (inactive)
same,GI50,[25],93.1 µM (inactive)
same,GI50,[26],46.3 µM (inactive)
same,GI50,[27],45.3 µM (inactive)
same,GI50,[28],72.4 µM (inactive)
same,GI50,[29],27.9 µM (inactive)
same,GI50,[30],59.8 µM (inactive)
same,GI50,[31],34.4 µM (inactive)
same,GI50,[32],94.6 µM (inactive)
same,GI50,[33],7.71 µM (inactive)
same,GI50,[34],54.6 µM (inactive)
same,GI50,[35],36.6 µM (inactive)
same,GI50,[36],39.2 µM (inactive)
same,GI50,[37],63.1 µM (inactive)
same,GI50,[38],43.5 µM (inactive)
same,GI50,[39],38 µM (inactive)
same,GI50,[40],35.7 µM (inactive)
same,GI50,[41],97.1 µM (inactive)
same,GI50,[42],49.1 µM (inactive)
same,GI50,[43],47.6 µM (inactive)
same,GI50,[44],34 µM (inactive)
same,GI50,[45],36.5 µM (inactive)
same,GI50,[46],25.4 µM (inactive)
same,GI50,[47],87.1 µM (inactive)
same,GI50,[48],66.4 µM (inactive)
same,GI50,[49],38.7 µM (inactive)
same,GI50,[50],59.6 µM (inactive)
same,GI50,[51],20.4 µM (inactive)
same,GI50,[52],58.7 µM (inactive)
same,GI50,[53],67.5 µM (inactive)
same,GI50,[54],60.1 µM (inactive)
c1ccc(C(=NNc2nc3ccccc3o2)c2ccccn2)nc1,GI50,[1],0.0388 µM (active)
same,GI50,[2],0.0908 µM (active)
same,GI50,[3],< 0.0254 µM (active)
same,GI50,[4],0.024 µM (active)
same,GI50,[6],0.232 µM (active)
same,GI50,[7],< 0.0175 µM (active)
same,GI50,[8],< 0.01 µM (active)
same,GI50,[55],< 0.01 µM (active)
same,GI50,[9],0.0931 µM (active)
same,GI50,[10],0.0292 µM (active)
same,GI50,[11],< 0.0161 µM (active)
same,GI50,[12],0.0494 µM (active)
same,GI50,[13],0.0408 µM (active)
same,GI50,[14],0.121 µM (active)
same,GI50,[15],0.188 µM (active)
same,GI50,[18],0.0327 µM (active)
same,GI50,[19],0.0998 µM (active)
same,GI50,[20],0.194 µM (active)
same,GI50,[21],0.0574 µM (active)
same,GI50,[22],0.0883 µM (active)
same,GI50,[23],0.0299 µM
same,GI50,[24],< 0.0105 µM (active)
same,GI50,[25],0.055 µM (active)
same,GI50,[26],< 0.01 µM (active)
same,GI50,[27],< 0.0164 µM (active)
same,GI50,[28],0.0301 µM (active)
same,GI50,[29],< 0.0117 µM (active)
same,GI50,[30],< 0.01 µM (active)
same,GI50,[32],0.447 µM (active)
same,GI50,[33],0.182 µM (active)
same,GI50,[34],< 0.0162 µM (active)
same,GI50,[56],0.0489 µM (active)
same,GI50,[35],0.148 µM (active)
same,GI50,[57],0.158 µM (active)
same,GI50,[36],0.0439 µM (active)
same,GI50,[37],0.0281 µM (active)
same,GI50,[38],0.0818 µM (active)
same,GI50,[39],0.0685 µM (active)
same,GI50,[40],0.118 µM (active)
same,GI50,[41],0.0841 µM (active)
same,GI50,[42],0.0198 µM (active)
same,GI50,[43],0.0327 µM (active)
same,GI50,[44],0.0993 µM (active)
same,GI50,[45],0.0245 µM (active)
same,GI50,[46],< 0.0191 µM (active)
same,GI50,[47],0.122 µM (active)
same,GI50,[48],0.0723 µM (active)
same,GI50,[49],< 0.01 µM (active)
same,GI50,[51],0.191 µM (active)
same,GI50,[52],0.0261 µM (active)
same,GI50,[58],0.0776 µM (active)
same,GI50,[59],0.0182 µM (active)
same,GI50,[53],0.0391 µM (active)
same,GI50,[54],0.151 µM (active)
COc1ccc(-c2c(C#N)c(N)nc(Sc3ccccc3N)c2C#N)cc1,GI50,[1],43.7 µM (inactive)
same,GI50,[2],9.35 µM (inactive)
same,GI50,[3],4.82 µM (inactive)
same,GI50,[4],> 90.6 µM (inactive)
same,GI50,[5],> 50.9 µM (inactive)
same,GI50,[6],> 83 µM (inactive)
same,GI50,[7],> 53.5 µM (inactive)
same,GI50,[8],> 100 µM (inactive)
same,GI50,[55],52.8 µM (inactive)
same,GI50,[9],12.1 µM (inactive)
same,GI50,[10],9.53 µM (inactive)
same,GI50,[11],14.6 µM (inactive)
same,GI50,[12],39.3 µM (inactive)
same,GI50,[13],6.1 µM (inactive)
same,GI50,[14],10.2 µM (inactive)
same,GI50,[15],> 47.6 µM (inactive)
same,GI50,[16],10.8 µM (inactive)
same,GI50,[17],22.1 µM (inactive)
same,GI50,[18],> 75.5 µM (inactive)
same,GI50,[19],13.4 µM (inactive)
same,GI50,[20],16.1 µM (inactive)
same,GI50,[21],10.9 µM (inactive)
same,GI50,[22],9.57 µM (inactive)
same,GI50,[23],24 µM
same,GI50,[24],> 71 µM (inactive)
same,GI50,[25],11.7 µM (inactive)
same,GI50,[26],4.79 µM (inactive)
same,GI50,[27],7.69 µM (inactive)
same,GI50,[28],8.11 µM (inactive)
same,GI50,[29],10.7 µM (inactive)
same,GI50,[30],2.82 µM (inactive)
same,GI50,[31],19 µM (inactive)
same,GI50,[32],6.05 µM (inactive)
same,GI50,[33],4.73 µM (inactive)
same,GI50,[34],15.7 µM (inactive)
same,GI50,[56],> 48.4 µM (inactive)
same,GI50,[35],44.9 µM (inactive)
same,GI50,[57],6.46 µM (inactive)
same,GI50,[36],> 100 µM (inactive)
same,GI50,[37],27.9 µM (inactive)
same,GI50,[38],28.6 µM (inactive)
same,GI50,[39],13.3 µM (inactive)
same,GI50,[40],9.66 µM (inactive)
same,GI50,[41],5.77 µM (inactive)
same,GI50,[42],13.1 µM (inactive)
same,GI50,[43],32.3 µM (inactive)
same,GI50,[44],9.46 µM (inactive)
same,GI50,[45],7.69 µM (inactive)
same,GI50,[46],12.9 µM (inactive)
same,GI50,[47],16.8 µM (inactive)
same,GI50,[48],8.36 µM (inactive)
same,GI50,[49],> 100 µM (inactive)
same,GI50,[51],> 100 µM (inactive)
same,GI50,[52],13.6 µM (inactive)
same,GI50,[58],10 µM (inactive)
same,GI50,[59],10.2 µM (inactive)
same,GI50,[53],> 43.1 µM (inactive)
same,GI50,[54],17.6 µM (inactive)
